{
  "source": "patent US20220008325A1",
  "about": "“WHITE PINE BARK EXTRACT FOR DECREASING ENDOTHELIN-1 SECRETION, STEM CELL FACTOR SYNTHESIS AND PROTEIN CARBONYLATION” (International Flavors & Fragrances Inc., priority 2018, published 2022)",
  "tested_on": "pigmented reconstructed human epidermis (RHE)",
  "experiment": "Melanin synthesis in ex vivo pigmented reconstructed human epidermis (Fontana-Masson staining)",
  "type": "cell-based",
  "conditions": "pigmented RHE phototype IV, topical formulation (2% extract or 1% kojic acid), 3 days, 2 applications per day, vs placebo formula",
  "protocol": "Non-pigmented reconstructed human epidermis (RHE) and pigmented RHE phototype IV were prepared by seeding human melanocytes and keratinocytes in an incubation chamber placed on the epidermal side of a dead dermis at 4×10^5 cells per cm^2, at a 1:20 melanocyte:keratinocyte ratio. After 24 hours, the incubation chamber was removed and the dead dermis was submerged for 3 days. The dead dermis was moved to the air-liquid interface for 8 days prior to treatment. After 8 days of exposure to the air-liquid interface, the pigmented RHE and non-pigmented RHE were contacted with Pinus strobus bark extract, placebo, negative control (no treatment), or positive control (kojic acid). This involved topical application of each formulation for 3 days, 2 applications per day (see FIG. 5). After 3 days, pigmented RHE was incubated for 3 days in the presence of a 1:1 mixture of fresh media and conditioned media from the non-pigmented RHE. The formulations included Heliogel™ (sodium acrylates copolymer, hydrogenated polyisobutene, phospholipids, polyglyceryl-10 stearate, sunflower seed oil; Lucas Meyer Cosmetics), Saboderm TCC (Caprylic/Capric Triglyceride; SABO, S.p.A), and Dekaben C (phenoxyethanol, methylparaben, ethylparaben, butylparaben, isobutylparaben, propylparaben; Jan Dekker BV) in the amounts listed in Table 1. Pigmentation was evaluated by Fontana-Masson staining. […]",
  "data": [
    {"molecule": "O=c1cc(CO)occ1O", "note": "[Kojic acid]", "values": [
      {"measurement": "decrease in melanin synthesis", "result": 8.1, "unit": "%"}
    ]}
  ]
}
